According to PMC5110245, “Identification and reconstitution of the rubber biosynthetic machinery on rubber particles from Hevea brasiliensis” (eLife, 2016):

How the values were obtained:
Format in all cases: biochemical
LsCPT3-LsCPTL2 = biological target: T1, LsCPT3-LsCPTL2 (Lactuca sativa, UniProt A0A0A0QMT0); test: […]-IPP incorporation into rubber, net of vector-control WRPs; conditions: 15 µM FPP, 5 mM MgCl2, pH 7.5, 30 °C; on Hevea WRPs; labelled compound
T1 construct: full-length synthetic CDSs (LsCPT3 in pEU-E01-His-TEV-MCS-N2, LsCPTL2 in pEU-E01-His-TEV-MCS-C1); wheat germ cell-free co-translation onto CHAPS-washed Hevea rubber particles (WRPs); with cis-prenyltransferase-like 2
T1 sequence (A0A0A0QMT0 1-296): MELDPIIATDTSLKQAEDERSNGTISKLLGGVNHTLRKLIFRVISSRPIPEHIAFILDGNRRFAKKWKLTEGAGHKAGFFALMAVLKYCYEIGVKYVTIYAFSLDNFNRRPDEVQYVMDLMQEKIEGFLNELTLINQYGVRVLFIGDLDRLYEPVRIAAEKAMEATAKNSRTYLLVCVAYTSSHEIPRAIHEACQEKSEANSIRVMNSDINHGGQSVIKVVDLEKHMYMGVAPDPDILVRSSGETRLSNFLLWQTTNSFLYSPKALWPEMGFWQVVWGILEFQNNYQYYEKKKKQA
T1 sequence (A0A0A0QP73 1-244 partner): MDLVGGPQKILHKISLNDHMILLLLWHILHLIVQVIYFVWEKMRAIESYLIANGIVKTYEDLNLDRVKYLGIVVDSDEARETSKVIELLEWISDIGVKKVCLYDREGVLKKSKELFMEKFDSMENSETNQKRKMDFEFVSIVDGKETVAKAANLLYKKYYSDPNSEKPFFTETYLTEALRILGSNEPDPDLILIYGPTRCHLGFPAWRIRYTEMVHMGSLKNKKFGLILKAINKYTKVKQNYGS

HRT1 = biological target: T2, HRT1 (Hevea brasiliensis, UniProt Q8L5B7); test: as above; conditions: 15 µM FPP, 5 mM MgCl2, pH 7.5, 30 °C; on WRPs; labelled compound
T2 construct: gene Hpt4; full-length CDS in pEU-E01-His-TEV-MCS-N2; wheat germ cell-free translation onto CHAPS-washed Hevea rubber particles (WRPs), which keep small amounts of endogenous proteins
T2 sequence (Q8L5B7 1-290): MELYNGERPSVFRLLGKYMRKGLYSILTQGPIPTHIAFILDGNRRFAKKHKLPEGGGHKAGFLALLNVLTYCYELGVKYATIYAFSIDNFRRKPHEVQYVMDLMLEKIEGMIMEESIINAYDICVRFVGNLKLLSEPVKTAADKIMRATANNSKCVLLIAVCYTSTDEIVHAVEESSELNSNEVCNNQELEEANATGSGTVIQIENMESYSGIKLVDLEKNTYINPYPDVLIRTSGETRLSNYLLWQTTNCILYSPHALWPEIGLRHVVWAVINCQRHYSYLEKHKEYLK

HRT1–HRBP–REF = biological target: T3, HRT1–HRBP–REF (Hevea brasiliensis, UniProt Q8L5B7); test: […]-IPP incorporation into rubber, allylic substrate dependency; conditions: allylic primer 15 µM; 100 µM [4-14C]IPP, 5 mM MgCl2, pH 7.5, 30 °C, 8 h; on WRPs
T3 construct: gene Hpt4; full-length CDSs, wheat germ cell-free co-translation onto CHAPS-washed Hevea rubber particles (WRPs); HRBP His6-tagged; stoichiometry not known; endogenous background present; Rubber elongation factor protein
T3 sequence (P15252 2-138, one chain of several): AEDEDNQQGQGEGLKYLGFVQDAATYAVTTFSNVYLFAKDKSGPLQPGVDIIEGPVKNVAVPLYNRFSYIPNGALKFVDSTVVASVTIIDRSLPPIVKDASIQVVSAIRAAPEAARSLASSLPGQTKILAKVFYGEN
T3 sequence (A0A1E1GJI0 entry or part of it, one chain of several, further chain): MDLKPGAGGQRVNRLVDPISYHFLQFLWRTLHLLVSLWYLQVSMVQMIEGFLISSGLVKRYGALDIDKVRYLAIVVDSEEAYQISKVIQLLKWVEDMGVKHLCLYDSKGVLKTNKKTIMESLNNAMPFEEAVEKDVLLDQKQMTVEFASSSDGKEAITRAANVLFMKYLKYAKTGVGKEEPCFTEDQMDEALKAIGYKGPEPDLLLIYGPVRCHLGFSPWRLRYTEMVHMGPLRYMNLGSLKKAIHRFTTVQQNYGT

14C-IPP incorporation into rubber, allylic substrate dependency (HRT1–HRBP–REF)	Compound	14C-IPP incorporation into rubber, net of vector-control WRPs (LsCPT3-LsCPTL2)	14C-IPP incorporation into rubber, net of vector-control WRPs (HRT1)
	C=C(C)CCOP(=O)(O)OP(=O)(O)O [IPP, isopentenyl diphosphate]	Co-expression of LsCPTL2 with LsCPT3 resulted in an increase of the activity of LsCPT3	introduction of HRT1 onto WRPs distinctly increased the RTase activity (Figure 9A)
the RTase was most active with FPP (C15)	CC(C)=CCC/C(C)=C/CC/C(C)=C/COP(=O)(O)OP(=O)(O)O [FPP, E,E-farnesyl diphosphate]		
